Our source for the AC50, EC50 and IC50 values is ChEMBL document CHEMBL1201862, “PubChem BioAssay data set” (2004).

Active and inactive are the calls of the source.

The nature of assay [1]: non-specific 3'UTR reporter inhibition in Clone20-Shn3RL – cell-based, Renilla luciferase, cherry-picked, counter-screen for Shn3 inhibitor project, dose response (AID 624133). In kind it is functional.
For a further assay, the target named is T1, Insulin-degrading enzyme (Homo sapiens, UniProt P14735).
T1 sequence (P14735 whole entry): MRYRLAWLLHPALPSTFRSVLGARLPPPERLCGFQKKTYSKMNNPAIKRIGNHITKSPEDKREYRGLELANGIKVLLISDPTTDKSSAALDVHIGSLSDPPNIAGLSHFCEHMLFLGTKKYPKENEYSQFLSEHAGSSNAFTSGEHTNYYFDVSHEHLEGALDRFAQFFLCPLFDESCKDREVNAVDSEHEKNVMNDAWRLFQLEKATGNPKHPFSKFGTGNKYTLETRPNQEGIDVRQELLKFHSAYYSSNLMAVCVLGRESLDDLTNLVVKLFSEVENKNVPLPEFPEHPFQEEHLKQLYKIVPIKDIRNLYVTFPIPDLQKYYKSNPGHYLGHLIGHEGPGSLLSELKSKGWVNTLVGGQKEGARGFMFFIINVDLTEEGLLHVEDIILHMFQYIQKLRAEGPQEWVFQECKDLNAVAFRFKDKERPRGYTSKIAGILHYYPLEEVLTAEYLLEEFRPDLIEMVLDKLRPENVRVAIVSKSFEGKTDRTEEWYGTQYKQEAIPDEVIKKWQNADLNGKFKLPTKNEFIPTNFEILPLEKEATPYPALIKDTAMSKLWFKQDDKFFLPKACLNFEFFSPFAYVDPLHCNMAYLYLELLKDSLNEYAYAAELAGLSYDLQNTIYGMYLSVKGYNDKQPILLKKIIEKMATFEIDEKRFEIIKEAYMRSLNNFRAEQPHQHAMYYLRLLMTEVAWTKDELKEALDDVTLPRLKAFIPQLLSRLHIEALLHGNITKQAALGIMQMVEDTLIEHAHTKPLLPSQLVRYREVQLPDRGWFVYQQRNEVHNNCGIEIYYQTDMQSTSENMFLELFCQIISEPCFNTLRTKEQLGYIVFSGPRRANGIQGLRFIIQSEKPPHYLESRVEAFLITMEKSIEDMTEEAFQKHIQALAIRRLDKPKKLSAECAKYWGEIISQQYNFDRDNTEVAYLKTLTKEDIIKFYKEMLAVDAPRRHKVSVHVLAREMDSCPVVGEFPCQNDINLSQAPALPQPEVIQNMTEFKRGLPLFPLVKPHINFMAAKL
The experiment in a line: cellular IDE activation of Abeta substrate cleavage – fluorescence polarization, HEK cells, dose response (AID 588439). In kind it is functional, cell-based. A general note: In fluorescence polarisation assays a small probe gives low polarisation when free and higher when bound to something large.

Assay [2] has as its system HEK293. Put plainly: membrane integrity loss in HEK cells – cell-based, fluorescence, cytotoxicity control for IDE activator project, dose response (AID 588440).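 Further: cytotoxicity by LDH release measuring loss of membrane integrity.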 Type of assay: functional. To be noted: Homo sapiens.
The test system of the next assay is HeLa. The experiment in a line: viability loss in HeLa cells – cell-based, 24 h, cherry-picked samples, cytotoxicity control, dose response (AID 504726).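 Further: potency for cytotoxicity as loss of luminescence signal.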 To be noted: Homo sapiens. Type of assay: functional.
The test system of assay [3] is HEK293. The experiment in a line: optical interference in Abeta FP readout, dose response, artefact control for IDE activator project, biochemical, fluorescence polarization (AID 588442). In kind it is functional, cell-based. To be noted: Homo sapiens.
Assay [4] concerns the target Histone-lysine N-methyltransferase NSD2 (Homo sapiens, UniProt O96028). In kind it is biochemical.
The target of another assay is T2, Hexokinase HKDC1 (Homo sapiens, UniProt Q2TB90).
T2 sequence (Q2TB90 whole entry): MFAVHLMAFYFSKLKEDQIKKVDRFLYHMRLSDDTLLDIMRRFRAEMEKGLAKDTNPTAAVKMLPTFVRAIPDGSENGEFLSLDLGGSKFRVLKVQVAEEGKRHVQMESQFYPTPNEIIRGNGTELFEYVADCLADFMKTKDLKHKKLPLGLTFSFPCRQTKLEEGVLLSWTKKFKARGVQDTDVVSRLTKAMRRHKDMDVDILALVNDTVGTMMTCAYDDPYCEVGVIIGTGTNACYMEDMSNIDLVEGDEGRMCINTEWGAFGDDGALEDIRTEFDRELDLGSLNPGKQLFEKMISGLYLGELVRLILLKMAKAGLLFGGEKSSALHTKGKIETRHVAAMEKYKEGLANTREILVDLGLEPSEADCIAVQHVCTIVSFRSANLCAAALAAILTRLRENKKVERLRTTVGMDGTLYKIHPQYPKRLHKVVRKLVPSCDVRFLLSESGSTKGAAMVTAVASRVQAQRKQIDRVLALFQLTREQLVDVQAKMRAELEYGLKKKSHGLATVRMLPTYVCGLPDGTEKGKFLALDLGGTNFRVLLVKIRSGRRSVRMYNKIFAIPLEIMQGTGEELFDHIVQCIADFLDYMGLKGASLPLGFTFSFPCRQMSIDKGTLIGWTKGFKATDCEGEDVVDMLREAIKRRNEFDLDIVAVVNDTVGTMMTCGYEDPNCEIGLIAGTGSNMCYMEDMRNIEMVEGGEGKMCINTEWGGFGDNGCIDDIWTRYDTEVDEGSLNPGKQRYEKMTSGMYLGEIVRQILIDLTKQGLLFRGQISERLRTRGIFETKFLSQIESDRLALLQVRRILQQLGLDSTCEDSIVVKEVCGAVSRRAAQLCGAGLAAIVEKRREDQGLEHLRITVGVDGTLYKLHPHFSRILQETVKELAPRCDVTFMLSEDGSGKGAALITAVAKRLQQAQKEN
Put plainly: analog inhibition of human HKDC1 activity – biochemical, set 2, SAR follow-up (AID 588355). Type of assay: functional.

Broadly, the AC50 is the concentration giving half of the maximal activity seen. As a reminder, the EC50 is the concentration that produces a half-maximal response. A word on the IC50: it is the concentration needed to halve the response being measured.

Sequence of Histone-lysine N-methyltransferase NSD2 (O96028 whole entry): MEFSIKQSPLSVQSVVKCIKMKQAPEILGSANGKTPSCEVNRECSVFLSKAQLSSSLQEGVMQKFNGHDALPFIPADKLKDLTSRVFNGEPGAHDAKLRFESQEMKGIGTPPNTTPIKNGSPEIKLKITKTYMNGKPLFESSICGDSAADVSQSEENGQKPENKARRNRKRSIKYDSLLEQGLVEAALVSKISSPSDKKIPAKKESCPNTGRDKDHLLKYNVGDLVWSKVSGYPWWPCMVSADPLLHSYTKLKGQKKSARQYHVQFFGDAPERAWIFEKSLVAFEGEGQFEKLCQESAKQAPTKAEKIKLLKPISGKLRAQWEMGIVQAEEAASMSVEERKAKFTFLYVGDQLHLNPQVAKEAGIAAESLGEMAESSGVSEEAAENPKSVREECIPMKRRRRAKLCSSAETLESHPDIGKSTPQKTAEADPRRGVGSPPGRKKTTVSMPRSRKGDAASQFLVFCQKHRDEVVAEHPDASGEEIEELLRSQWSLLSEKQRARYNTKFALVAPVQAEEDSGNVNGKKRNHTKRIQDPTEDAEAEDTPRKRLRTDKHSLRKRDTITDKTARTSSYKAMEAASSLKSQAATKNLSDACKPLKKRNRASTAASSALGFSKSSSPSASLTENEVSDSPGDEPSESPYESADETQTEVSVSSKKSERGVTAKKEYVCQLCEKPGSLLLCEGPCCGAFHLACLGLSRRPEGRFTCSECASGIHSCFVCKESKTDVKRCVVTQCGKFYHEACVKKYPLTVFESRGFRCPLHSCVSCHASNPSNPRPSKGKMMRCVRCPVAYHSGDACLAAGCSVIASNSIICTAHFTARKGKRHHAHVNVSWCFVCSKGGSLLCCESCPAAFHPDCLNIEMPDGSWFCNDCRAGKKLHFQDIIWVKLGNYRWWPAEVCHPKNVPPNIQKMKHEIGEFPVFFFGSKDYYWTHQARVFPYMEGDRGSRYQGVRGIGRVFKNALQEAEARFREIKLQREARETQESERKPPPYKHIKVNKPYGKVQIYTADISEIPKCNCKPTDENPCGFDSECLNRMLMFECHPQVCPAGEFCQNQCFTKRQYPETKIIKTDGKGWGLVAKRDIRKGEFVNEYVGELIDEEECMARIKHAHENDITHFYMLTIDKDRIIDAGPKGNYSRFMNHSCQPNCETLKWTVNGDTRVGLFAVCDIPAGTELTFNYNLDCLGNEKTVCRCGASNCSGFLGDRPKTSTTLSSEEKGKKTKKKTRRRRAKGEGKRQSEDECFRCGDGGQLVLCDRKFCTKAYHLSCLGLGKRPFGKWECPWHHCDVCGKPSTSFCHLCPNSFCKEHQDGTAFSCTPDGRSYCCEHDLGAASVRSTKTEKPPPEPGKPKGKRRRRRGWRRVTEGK

For the compound `CCCCC(=O)NC(c1ccc(Cl)cc1)c1ccc2cccnc2c1O` (configuration not stated), the AC50 in assay [1] was 909 nM (active).
Take `COc1ccc2noc3c2c1C(=O)c1ccccc1-3`: the EC50 at Insulin-degrading enzyme and in the assay with HEK293 [3] was > 54.7 µM (inactive) in each case. For the same compound, the IC50 in the assay with HEK293 [2] is > 89.2 µM (inactive). Also, the values for the concentration at half-maximal activity (AC50) (with HeLa; in assay [4]) were 74.7 µM (active) and > 20 µM (inactive), respectively.
As to `CCc1ccc2c(c1)C(NC(C)=O)C(=O)N2CCN1CCOCC1` (configuration not stated), the IC50 at Hexokinase HKDC1 was 7.56 µM (active).
